Data on 27 molecules can be found in US11512079B2, “Heterocycle substituted pyridine derivative antifungal agents” (Amplyx Pharmaceuticals, Inc., priority 2017, dated 2022).

Each structure is given as a SMILES string. Values after ≈ are worked out from the molar mass of the structure shown.

Common to all, as to format: cell-based
The test system of one test is Candida albicans 90028. In words: In vitro antifungal assay (Example IX), microdilution broth, MIC. Particulars: minimum inhibitory concentration (≥50% inhibition), 35° C., 40-48 h, RPMI1640. The essentials: (§1)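 CLSI broth microdilution in RPMI1640 with 2.5×10^3 cells/mL and final compound concentrations of 2-0.0019 μg/mL (1% DMSO). C. albicans 90028 plates were incubated at 35° C. for 40-48 h and C. neoformans H99 for 72 h. MIC was read as minimum inhibitory concentration, verified at 600 nm.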

In test [1] the test system is Cryptococcus neoformans H99. The description is as above. The note with it: minimum inhibitory concentration (≥50% inhibition), 35° C., 72 h, RPMI1640. The essentials:
as §1

Test [2] deals with Aspergillus fumigatus MYA3626. The test is described as follows: In vitro antifungal assay (Example IX), microdilution broth, MEC. The note with it: minimum effective concentration (shortening of hyphae), 35° C., 40-48 h, RPMI1640. In a few lines:
(§2)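 Spore suspensions of A. fumigatus and R. pusillus adjusted to 1-2×10^4 spores/mL in RPMI1640 and exposed to compound dilutions prepared in DMSO, by broth microdilution. MEC taken as the lowest concentration shortening hyphae versus DMSO control wells, read as for echinocandins.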
(In general: Broth dilution looks for growth in wells or tubes with falling amounts of substance.)

The test system of test [3] is Rhizomucor pusillus 46342. The description is as above. Particulars: minimum effective concentration (shortening of hyphae), 35° C., 40-48 h, RPMI1640. In a few lines:
as §2

As usually defined, the MIC is the smallest concentration in the dilution series that meets the test's criterion for growth inhibition. A high value points to weaker potency. For orientation: minimal effective concentration means the lowest level tested that produced the effect sought. A high value points to a need for much substance. In the case of `COc1ccc(OCc2ccc(Cc3cc(-c4cccnc4N)on3)cc2)cc1OC` [compound 104, 3-(3-(4-((3,4-dimethoxyphenoxy)methyl)benzyl)isoxazol-5-yl)pyridin-2-amine], the MIC (in the test on Candida albicans 90028; in test [1]) was > 1 µg/mL throughout. Moreover, the minimal effective concentration in test [2] and in test [3] was > 1 µg/mL throughout.
Consider `Nc1ncccc1-c1cc(Cc2ccc(OCC(c3ccccc3)c3ccccc3)nc2)no1` [compound 215, 3-(3-((6-(2,2-diphenylethoxy)pyridin-3-yl)methyl)isoxazol-5-yl)pyridin-2-amine], for which the MIC against Candida albicans 90028 was > 1 µg/mL. In addition, the minimal effective concentration in test [2] and in test [3] was > 1 µg/mL each time.
For the molecule `Cc1cnc(COc2ccc(Cc3cc(-c4cccnc4N)on3)cc2)nc1` [compound 29, 3-(3-(4-((5-methylpyrimidin-2-yl)methoxy)benzyl)isoxazol-5-yl)pyridin-2-amine], the MIC with Candida albicans 90028 lay in the range of 0.1 to 1 µg/mL (≈ 0.268 to 2.68 µM). Moreover, the minimal effective concentration was 0.1 to 1 µg/mL in test [2] and > 1 µg/mL in test [3].
Regarding `Nc1ncccc1-c1cc(Cc2ccc(N3CCOCC3)nc2)no1` [compound 227, 3-(3-((6-morpholinopyridin-3-yl)methyl)isoxazol-5-yl)pyridin-2-amine], the MIC against Candida albicans 90028 was > 1 µg/mL. Further, the minimal effective concentration in test [2] and in test [3] was > 1 µg/mL in each case.
`CC(C)Cn1cc(Cc2ccc(Cc3cc(-c4cccnc4N)on3)cc2)cn1` [compound 16, 3-(3-(4-((1-isobutyl-1H-pyrazol-4-yl)methyl)benzyl)isoxazol-5-yl)pyridin-2-amine] showed an MIC against Candida albicans 90028 of 0.1 to 1 µg/mL (≈ 0.258 to 2.58 µM). The minimal effective concentration in test [2] and in test [3] was 0.1 to 1 µg/mL throughout.
On to `CC1=C(Oc2ccc(Cc3cc(-c4cccnc4N)on3)cn2)C(=O)C(C)O1` (stereo not shown) [compound 71, 4-((5-((5-(2-aminopyridin-3-yl)isoxazol-3-yl)methyl)pyridin-2-yl)oxy)-2,5-dimethylfuran-3(2H)-one], for which the MIC with Candida albicans 90028 was > 1 µg/mL. The minimal effective concentration in test [2] and in test [3] was > 1 µg/mL throughout.
Regarding `C=Cc1ccc(Cc2cc(-c3cccnc3N)on2)cc1` [compound 97, 3-(3-(4-Vinylbenzyl)isoxazol-5-yl)pyridin-2-amine], the MIC against Candida albicans 90028 is > 1 µg/mL. Moreover, the minimal effective concentration in test [2] was 0.1 to 1 µg/mL; in test [3], > 1 µg/mL.
Take `N#Cc1ccc(COc2ccc(Cc3cc(-c4cccnc4N)on3)cn2)cc1` [compound 76, 4-(((5-((5-(2-aminopyridin-3-yl)isoxazol-3-yl)methyl)pyridin-2-yl)oxy)methyl)benzonitrile]: in the test with Candida albicans 90028, the MIC is > 1 µg/mL. In addition, the minimal effective concentration in test [2] and in test [3] was 0.1 to 1 µg/mL each time.
On to `Cn1cc(COc2ccc(Cc3cc(-c4cccnc4N)on3)cn2)cn1` [compound 49, 3-(3-((6-((1-methyl-1H-pyrazol-4-yl)methoxy)pyridin-3-yl)methyl)isoxazol-5-yl)pyridin-2-amine], for which the MIC against Candida albicans 90028 was > 1 µg/mL. The minimal effective concentration in test [2] and in test [3] was > 1 µg/mL each time.
For the molecule `Nc1ncccc1-c1cc(Cc2ccc(OCc3ccnc(Cl)c3F)nc2)no1` [compound 210, 3-(3-((6-((2-chloro-3-fluoropyridin-4-yl)methoxy)pyridin-3-yl)methyl)isoxazol-5-yl)pyridin-2-amine], in the test on Candida albicans 90028, the MIC was > 1 µg/mL. Moreover, the minimal effective concentration in test [2] and in test [3] was > 1 µg/mL throughout.
Molecule `Nc1ncccc1-c1cnn(Cc2ccc(Sc3ccccc3)nc2)c1` [compound 67, 3-(1-((6-(phenylthio)pyridin-3-yl)methyl)-1H-pyrazol-4-yl)pyridin-2-amine] gave an MIC with Candida albicans 90028 of 0.1 to 1 µg/mL (≈ 0.278 to 2.78 µM). Moreover, the minimal effective concentration in test [2] is 0.1 to 1 µg/mL; in test [3], > 1 µg/mL.
For `Cc1ncsc1CCOc1ccc(Cc2cc(-c3cccnc3N)on2)cn1` [Example 155, 3-(3-((6-(2-(4-methylthiazol-5-yl)ethoxy)pyridin-3-yl)methyl)isoxazol-5-yl)pyridin-2-amine], the MIC against Candida albicans 90028 is > 1 µg/mL. The minimal effective concentration in test [2] and in test [3] was > 1 µg/mL in each case.
Regarding `Nc1ncccc1-c1cc(Cc2ccc(S(=O)(=O)N3CCOCC3)cc2)no1` [compound 228, 3-(3-(4-(morpholinosulfonyl)benzyl)isoxazol-5-yl)pyridin-2-amine], the minimum inhibitory concentration (MIC) in the test on Candida albicans 90028 is > 1 µg/mL. Also, the minimal effective concentration in test [2] and in test [3] was > 1 µg/mL each time.
`Nc1ncccc1-c1cc(Cc2cccc(OCCc3cccc(F)c3)n2)no1` [Example 147, 3-(3-((6-(3-fluorophenethoxy)pyridin-2-yl)methyl)isoxazol-5-yl)pyridin-2-amine]: the MIC in the test on Candida albicans 90028 is > 1 µg/mL. Also, the minimal effective concentration in test [2] and in test [3] was > 1 µg/mL each time.
`Nc1ncccc1-c1cc(Cc2ccc(OCc3cccc4ccccc34)nc2)no1` [Example 164, 3-(3-((6-(naphthalen-1-ylmethoxy)pyridin-3-yl)methyl)isoxazol-5-yl)pyridin-2-amine]: the MIC in the test on Candida albicans 90028 was > 1 µg/mL. In addition, the values for the minimal effective concentration in test [2] and in test [3] were 0.1 to 1 µg/mL and > 1 µg/mL, respectively.
On to `Nc1ncccc1-c1cc(Cc2cccc(OCc3cccc(F)c3)n2)no1` [compound 89, 3-(3-((6-((3-fluorobenzyl)oxy)pyridin-2-yl)methyl)isoxazol-5-yl)pyridin-2-amine], for which the MIC in the test with Candida albicans 90028 was > 1 µg/mL. Also, the minimal effective concentration in test [2] and in test [3] was > 1 µg/mL throughout.
Regarding `Nc1ncccc1-c1cc(Cc2ccc(CNC3CCCCNC3=O)cc2)no1` (stereo not shown) [compound 96, 3-((4-((5-(2-aminopyridin-3-yl)isoxazol-3-yl)methyl)benzyl)amino)azepan-2-one], the MIC in the test on Candida albicans 90028 is > 1 µg/mL. The minimal effective concentration in test [2] and in test [3] was > 1 µg/mL throughout.
For `Nc1ncccc1-c1cc(Cc2ccc(OCCCc3ccc(OCc4ccccc4)cc3)nc2)no1` [compound 214, 3-(3-((6-(3-(4-(benzyloxy)phenyl)propoxy)pyridin-3-yl)methyl)isoxazol-5-yl)pyridin-2-amine], in the test with Candida albicans 90028, the MIC is > 1 µg/mL. Moreover, the minimal effective concentration in test [2] and in test [3] was > 1 µg/mL each time.
`Nc1ncccc1-c1cc(Cc2ccc(OCc3cc(F)cc(Cl)c3)nc2)no1` [compound 87, 3-(3-((6-((3-chloro-5-fluorobenzyl)oxy)pyridin-3-yl)methyl)isoxazol-5-yl)pyridin-2-amine] returned an MIC in the test with Candida albicans 90028 of 0.1 to 1 µg/mL (≈ 0.243 to 2.43 µM). Moreover, the minimal effective concentration in test [2] was 0.01 to 0.1 µg/mL; in test [3], > 1 µg/mL.
The like results for `Nc1ncccc1-c1cc(Cc2ccc(OCCc3cc(F)c(F)cc3F)nc2)no1` [Example 158, 3-(3-((6-(2,4,5-trifluorophenethoxy)pyridin-3-yl)methyl)isoxazol-5-yl)pyridin-2-amine] were, in that order, 0.1 to 1 µg/mL (≈ 0.235 to 2.35 µM), 0.1 to 1 µg/mL and > 1 µg/mL.
The like results for `CC(Oc1ccc(Cc2cc(-c3cccnc3N)on2)cn1)c1ccccc1F` (stereo not shown) [compound 56, 3-(3-((6-(1-(2-fluorophenyl)ethoxy)pyridin-3-yl)methyl)isoxazol-5-yl)pyridin-2-amine] were, in that order, 0.1 to 1 µg/mL (≈ 0.256 to 2.56 µM), 0.1 to 1 µg/mL and > 1 µg/mL.
Take `Nc1ncccc1-c1cc(Cc2ccc(/C=C/Cc3ccccc3)cc2)no1` [compound 194, (E)-3-(3-(4-(3-phenylprop-1-en-1-yl)benzyl)isoxazol-5-yl)pyridin-2-amine]: the MIC in the test with Candida albicans 90028 was > 1 µg/mL. Also, the minimal effective concentration in test [2] is 0.1 to 1 µg/mL; in test [3] it was > 1 µg/mL.
`Nc1ncccc1-c1cc(Cc2ccc(Cn3ncc4ccccc43)cc2)no1` [Example 170, 3-(3-(4-((1H-indazol-1-yl)methyl)benzyl)isoxazol-5-yl)pyridin-2-amine] displayed an MIC against Candida albicans 90028 of 0.1 to 1 µg/mL (≈ 0.262 to 2.62 µM). Further, the minimal effective concentration in test [2] and in test [3] was 0.1 to 1 µg/mL in each case.
Turning to `Nc1ccc(-c2cnn(Cc3ccc(OCc4ccccc4)nc3)c2)cn1` [compound 68, 5-(1-((6-(benzyloxy)pyridin-3-yl)methyl)-1H-pyrazol-4-yl)pyridin-2-amine], in the test on Candida albicans 90028, the MIC is 0.1 to 1 µg/mL (≈ 0.28 to 2.8 µM). Also, the minimal effective concentration was 0.1 to 1 µg/mL in test [2] and > 1 µg/mL in test [3].
For `Nc1ncccc1-c1cc(Cc2ccnc(Oc3ccccc3)c2)no1` [compound 88], the MIC in the test with Candida albicans 90028 lay within 0.1 to 1 µg/mL (≈ 0.29 to 2.9 µM). For the same molecule, the minimal effective concentration in test [2] was 0.1 to 1 µg/mL; in test [3], > 1 µg/mL.
As to `Nc1ccc(-c2cc(Cc3ccc(OCc4nccs4)cc3)no2)c(N)n1` [compound 133, 3-(3-(4-(thiazol-2-ylmethoxy)benzyl)isoxazol-5-yl)pyridine-2,6-diamine], the MIC with Candida albicans 90028 lay in the range of 0.1 to 1 µg/mL (≈ 0.264 to 2.64 µM). The minimal effective concentration in test [2] and in test [3] was 0.1 to 1 µg/mL throughout.
For `Cc1occc1COc1ccc(Cc2cc(-c3cccnc3N)on2)cn1` [compound 52, 3-(3-((6-((2-methylfuran-3-yl)methoxy)pyridin-3-yl)methyl)isoxazol-5-yl)pyridin-2-amine], the MIC in the test with Candida albicans 90028 lay in the range of 0.1 to 1 µg/mL (≈ 0.276 to 2.76 µM). For the same molecule, the minimal effective concentration in test [2] is 0.1 to 1 µg/mL; in test [3] it was > 1 µg/mL.
